CCC[C@@H]1CC(=O)N([C@@H](CC)C(N)=O)C1
solubility (mole fraction)
Settings | 278.15 K | 283.15 K | 288.15 K | 293.15 K | 298.15 K | 303.15 K | 308.15 K | 313.15 K | 318.15 K | 323.15 K
in MTBE | 0.00794 | 0.0117 | 0.0181 | 0.0331 | 0.0496 | 0.078 | 0.11 | 0.175 | 0.291 | 0.419
in diisopropyl ether | 0.00075 | 0.00108 | 0.00235 | 0.00327 | 0.00513 | 0.00618 | 0.00879 | 0.0143 | 0.0205 | 0.0341
in ethanol | 0.189 | 0.226 | 0.258 | 0.297 | 0.328 | 0.371 | 0.415 | 0.466 | 0.523 | 0.576
in ethyl acetate | 0.0369 | 0.0541 | 0.0769 | 0.113 | 0.152 | 0.201 | 0.275 | 0.332 | 0.418 | 0.499
in ethyl formate | 0.0887 | 0.113 | 0.142 | 0.18 | 0.224 | 0.279 | 0.33 | 0.393 | 0.465 | 0.519
in isopropanol | 0.127 | 0.163 | 0.186 | 0.219 | 0.25 | 0.287 | 0.341 | 0.392 | 0.445 | 0.51
in isopropyl acetate | 0.0322 | 0.0429 | 0.0625 | 0.0768 | 0.109 | 0.154 | 0.206 | 0.287 | 0.365 | 0.455
in methanol | 0.234 | 0.275 | 0.309 | 0.337 | 0.367 | 0.416 | 0.445 | 0.497 | 0.557 | 0.61
in n-butyl acetate | 0.0279 | 0.0337 | 0.0428 | 0.0577 | 0.0846 | 0.108 | 0.161 | 0.21 | 0.293 | 0.412
in n-heptane | 1.02e-05 | 1.86e-05 | 3.36e-05 | 4.77e-05 | 8.17e-05 | 0.000113 | 0.000168 | 0.000249 | 0.000335 | 0.000493
in n-hexane | 4.1e-05 | 6.64e-05 | 8.92e-05 | 0.000133 | 0.00018 | 0.000239 | 0.000324 | 0.000413 | 0.000524 | 0.000739
in n-propanol | 0.137 | 0.17 | 0.204 | 0.245 | 0.28 | 0.318 | 0.365 | 0.412 | 0.475 | 0.52
